Several values for one entry are separate records, joined by “and”; a condition that tells them apart may be missing. Equal values may be shown once. Inconclusive results and toxic doses are left out.
Test system: P388 leukemia ip, CD2F1 mice, survival T/C
Test: NCI In Vivo Anticancer Drug Screen. Data for tumor model P388 Leukemia (intraperitoneal) in CD2F1 (CDF1) mice
Conditions: endpoint: median survival time, higher = longer survival
Summary of the method: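 Mice carrying the transplanted tumor received test compound or vehicle. Survival was recorded in each group, and the value is the treated-group measurement divided by that of the vehicle-treated control group.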

[1] = dose: 25.0 mg/kg/injection, schedule: Q01DX009 (ip), vehicle: saline with Tween-80
[2] = dose: 50.0 mg/kg/injection, schedule: Q01DX009 (ip), vehicle: saline with Tween-80
[3] = dose: 100.0 mg/kg/injection, schedule: Q01DX009 (ip), vehicle: saline with Tween-80
[4] = dose: 200.0 mg/kg/injection, schedule: Q01DX009 (ip), vehicle: saline with Tween-80
[5] = dose: 50.0 mg/kg/injection, schedule: Q01DX005 (ip), vehicle: Klucel (hydroxypropylcellulose) (HPC)
[6] = dose: 100.0 mg/kg/injection, schedule: Q01DX005 (ip), vehicle: Klucel (hydroxypropylcellulose) (HPC)
[7] = dose: 200.0 mg/kg/injection, schedule: Q01DX005 (ip), vehicle: Klucel (hydroxypropylcellulose) (HPC)
[8] = dose: 50.0 mg/kg/injection, schedule: Q01DX005 (ip), vehicle: saline with Tween-80
[9] = dose: 100.0 mg/kg/injection, schedule: Q01DX005 (ip), vehicle: saline with Tween-80
[10] = dose: 60.0 mg/kg/injection, schedule: Q01DX005 (ip), vehicle: saline with Tween-80
[11] = dose: 120.0 mg/kg/injection, schedule: Q01DX005 (ip), vehicle: saline with Tween-80
[12] = dose: 240.0 mg/kg/injection, schedule: Q01DX005 (ip), vehicle: saline with Tween-80
[13] = dose: 50.0 mg/kg/injection, schedule: Q01DX009 (ip), vehicle: suspension in saline
[14] = dose: 100.0 mg/kg/injection, schedule: Q01DX009 (ip), vehicle: suspension in saline
[15] = dose: 200.0 mg/kg/injection, schedule: Q01DX009 (ip), vehicle: suspension in saline

`ON=C(C1CC1)C1CC1` was tested, and the T/C [1] was 95 % of control, the T/C [2] was 101 % of control and the T/C [3] was 104 % of control. The T/C [4] was 91 % of control.

With `Cc1ccc(/C=C(\NC(=O)c2ccc(C)cc2)C(=O)O)cc1` the T/C [5] was 114 % of control, the T/C [6] was 114 % of control and the T/C [7] was 107 % of control.

With `C[N-]N(C)C(=O)[S-].C[N-]N(C)C(=O)[S-].C[N-]N(C)C(=O)[S-].[Co]` the T/C (dose: 25.0 mg/kg/injection, schedule: Q04DX003 (ip), vehicle: saline with Tween-80) was 103 % of control and the T/C (dose: 50.0 mg/kg/injection, schedule: Q04DX003 (ip), vehicle: saline with Tween-80) was 103 % of control.

In the case of `CCCCN1CCNC1=S`, the T/C [8] is reported as 100 % of control, the T/C [9] is reported as 102 % of control and the T/C (dose: 200.0 mg/kg/injection, schedule: Q01DX005 (ip), vehicle: saline with Tween-80) is reported as 102 % of control.

`COc1ccc2c(c1)C(=O)C1(CC2)OC1c1cccnc1` (stereo not drawn) was tested, and the T/C (dose: 12.5 mg/kg/injection, schedule: Q01DX009 (ip), vehicle: other) was 110 % of control, the T/C (dose: 25.0 mg/kg/injection, schedule: Q01DX009 (ip), vehicle: other) was 115 % of control and the T/C (dose: 50.0 mg/kg/injection, schedule: Q01DX009 (ip), vehicle: other) was 100 % of control and 117 % of control. For the same compound, the T/C (dose: 100.0 mg/kg/injection, schedule: Q01DX009 (ip), vehicle: other) was 115 % of control and 117 % of control, the T/C (dose: 200.0 mg/kg/injection, schedule: Q01DX009 (ip), vehicle: other) was 94 % of control and the T/C (dose: 400.0 mg/kg/injection, schedule: Q01DX009 (ip), vehicle: other) was 99 % of control.

For `CC(=O)OCC1OC(Nc2[nH]c(=O)n(C)c(=O)c2C(=O)CCl)C(OC(C)=O)C(OC(C)=O)C1OC(C)=O` (stereo not drawn), the T/C [10] was 114 % of control, the T/C [11] was 105 % of control and the T/C [12] was 124 % of control.

`O=C1Nc2cnc(Cl)nc2Nc2cc(Cl)ccc21` was tested, and the T/C [5] was 95 % of control, the T/C [6] was 95 % of control and the T/C [7] was 92 % of control.

With `COc1ccccc1-n1c(=S)n(-c2ccccc2C)c2nc3ccccc3nc1/c2=N\Nc1ccccn1` the T/C [8] was 100 % of control and the T/C [9] was 102 % of control.

For `CCOC1NC(=S)N(C2CCCCC2)C1(C)C` (stereo not drawn), the T/C [13] was 93 % of control, the T/C [14] was 92 % of control and the T/C [15] was 97 % of control.

For `C=c1cc2c(cc1=C)C(=O)c1ccccc1C2=O`, the T/C (dose: 15.0 mg/kg/injection, schedule: Q01DX005 (ip), vehicle: saline with Tween-80) was 89 % of control, the T/C (dose: 30.0 mg/kg/injection, schedule: Q01DX005 (ip), vehicle: saline with Tween-80) was 90 % of control and the T/C [10] was 86 % of control and 91 % of control. For the same compound, the T/C [12] was 89 % of control.

For `O=C1NC(=O)C(C2CCOC2=O)N1` (stereo not drawn), the T/C [2] was 106 % of control, the T/C [3] was 102 % of control and the T/C [4] was 106 % of control.

In the case of `NC1C=NNC1=O` (stereo not drawn), the T/C [10] is reported as 110 % of control, the T/C [11] is reported as 116 % of control and the T/C [12] is reported as 116 % of control.

`O=C(Nc1ncn[nH]1)C(=O)Nc1ncn[nH]1` was tested, and the T/C (dose: 6.25 mg/kg/injection, schedule: Q01DX009 (ip), vehicle: saline with Tween-80) was 92 % of control, the T/C (dose: 12.5 mg/kg/injection, schedule: Q01DX009 (ip), vehicle: saline with Tween-80) was 94 % of control and the T/C [1] was 95 % of control.

In the case of `COP(=O)(OC)C1c2ccccc2-c2cccc(C(=O)O)c21` (stereo not drawn), the T/C [5] is reported as 105 % of control, the T/C [6] is reported as 106 % of control and the T/C [7] is reported as 110 % of control.

In the case of `Cc1c(N=O)c(-c2ccccc2)n(O)[n+]1[O-]`, the T/C [10] is reported as 102 % of control, the T/C [11] is reported as 101 % of control and the T/C [12] is reported as 102 % of control.

`CCOC(=O)CCCCCCCCNC(=S)N1c2c(nc(N)[nH]c2=O)NCC1CNc1ccc(C(=O)NC(CCC(=O)O)C(=O)O)cc1` (stereo not drawn) was tested, and the T/C (dose: 50.0 mg/kg/injection, schedule: Q01DX009 (ip), vehicle: Klucel (hydroxypropylcellulose) (HPC)) was 90 % of control, the T/C (dose: 100.0 mg/kg/injection, schedule: Q01DX009 (ip), vehicle: Klucel (hydroxypropylcellulose) (HPC)) was 110 % of control and the T/C (dose: 200.0 mg/kg/injection, schedule: Q01DX009 (ip), vehicle: Klucel (hydroxypropylcellulose) (HPC)) was 99 % of control.

`CC1/C=C/C=C/CC/C=C/C=C/C=C/C=C/C(OC2OC(C)C(O)C(N)C2O)CC2OC(CC(O)C(O)CCC(O)CC(O)CC(O)CC(=O)OC(C)C(C)C1O)CC(O)C2C(=O)O` (stereo not drawn) was tested, and the T/C (dose: 6.25 mg/kg/injection, schedule: Q01DX005 (ip), vehicle: saline with Tween-80) was 95 % of control, the T/C (dose: 9.5 mg/kg/injection, schedule: Q01DX009 (ip), vehicle: saline sonified) was 100 % of control and the T/C (dose: 12.5 mg/kg/injection, schedule: Q01DX005 (ip), vehicle: saline with Tween-80) was 109 % of control. For the same compound, the T/C (dose: 19.0 mg/kg/injection, schedule: Q01DX009 (ip), vehicle: saline sonified) was 95 % of control, the T/C (dose: 25.0 mg/kg/injection, schedule: Q01DX005 (ip), vehicle: saline with Tween-80) was 104 % of control and the T/C (dose: 38.0 mg/kg/injection, schedule: Q01DX009 (ip), vehicle: saline sonified) was 100 % of control. For the same compound, the T/C [8] was 95 % of control.

`Cc1[nH]c2ccc(N(C)C)cc2c(=O)c1CN(Cc1ccccc1)Cc1c(C)[nH]c2ccc(N(C)C)cc2c1=O` was tested, and the T/C (dose: 7.5 mg/kg/injection, schedule: Q01DX005 (ip), vehicle: Klucel (hydroxypropylcellulose) (HPC)) was 94 % of control, the T/C (dose: 15.0 mg/kg/injection, schedule: Q01DX005 (ip), vehicle: Klucel (hydroxypropylcellulose) (HPC)) was 89 % of control and the T/C (dose: 30.0 mg/kg/injection, schedule: Q01DX005 (ip), vehicle: Klucel (hydroxypropylcellulose) (HPC)) was 86 % of control.

In the case of `CCSC(SCC)C(NC(C)=O)C(O)C(O)C(O)CO` (stereo not drawn), the T/C (dose: 12.5 mg/kg/injection, schedule: Q01DX009 (ip), vehicle: water) is reported as 114 % of control, the T/C (dose: 25.0 mg/kg/injection, schedule: Q01DX009 (ip), vehicle: water) is reported as 113 % of control and the T/C (dose: 50.0 mg/kg/injection, schedule: Q01DX009 (ip), vehicle: water) is reported as 107 % of control. For the same compound, the T/C (dose: 100.0 mg/kg/injection, schedule: Q01DX009 (ip), vehicle: water) was 109 % of control and the T/C (dose: 200.0 mg/kg/injection, schedule: Q01DX009 (ip), vehicle: water) was 106 % of control.

For `CC(C)COC(CNC(=O)c1ccccc1)C(Cl)(Cl)Cl` (stereo not drawn), the T/C [2] was 100 % of control, the T/C [3] was 100 % of control and the T/C [4] was 110 % of control.

For `Cn1c(/C=[N+](/C)[O-])cnc1[N+](=O)[O-]`, the T/C [13] was 102 % of control, the T/C [14] was 103 % of control and the T/C [15] was 108 % of control.

For `O=C(Nc1cccc2ccccc12)[C@H]1C[C@H]2C=C[C@@H]1C2`, the T/C (dose: 100.0 mg/kg/injection, schedule: Q04DX003 (ip), vehicle: saline with Tween-80) was 95 % of control, the T/C (dose: 200.0 mg/kg/injection, schedule: Q04DX003 (ip), vehicle: saline with Tween-80) was 90 % of control and the T/C (dose: 400.0 mg/kg/injection, schedule: Q04DX003 (ip), vehicle: saline with Tween-80) was 113 % of control.

`O=S1(=O)CS(=O)(=O)OCCCCO1` was tested, and the T/C (dose: 12.5 mg/kg/injection, schedule: Q01DX005 (ip), vehicle: saline) was 176 % of control, the T/C (dose: 25.0 mg/kg/injection, schedule: Q01DX005 (ip), vehicle: saline) was 167 % of control and 199 % of control and the T/C (dose: 50.0 mg/kg/injection, schedule: Q01DX005 (ip), vehicle: saline) was 87 % of control.

For `COC(=O)C1C2COc3ccccc3C2=NC1c1ccc([N+](=O)[O-])cc1` (stereo not drawn), the T/C (dose: 25.0 mg/kg/injection, schedule: Q01DX001 (ip), vehicle: Klucel (hydroxypropylcellulose) (HPC)) was 91 % of control, the T/C (dose: 50.0 mg/kg/injection, schedule: Q01DX001 (ip), vehicle: Klucel (hydroxypropylcellulose) (HPC)) was 96 % of control and the T/C (dose: 100.0 mg/kg/injection, schedule: Q01DX001 (ip), vehicle: Klucel (hydroxypropylcellulose) (HPC)) was 95 % of control.

With `CC1=C(c2ccccc2)C2(c3ccccc3)OC(c3ccc([N+](=O)[O-])cc3)=NOC2(C)C1` (stereo not drawn) the T/C [2] was 93 % of control, the T/C [3] was 93 % of control and the T/C [4] was 96 % of control.

`O=[N+]([O-])O.[Al]` was tested, and the T/C (dose: 25.0 mg/kg/injection, schedule: Q01DX009 (ip), vehicle: saline) was 100 % of control, the T/C (dose: 50.0 mg/kg/injection, schedule: Q01DX009 (ip), vehicle: saline) was 91 % of control and the T/C (dose: 100.0 mg/kg/injection, schedule: Q01DX009 (ip), vehicle: saline) was 86 % of control. The T/C (dose: 100.0 mg/kg/injection, schedule: Q04DX003 (ip), vehicle: saline) was 90 % of control.
